# According to patent publication US12503436B2, “Compounds and compositions for treating conditions associated with STING activity” (NOVARTIS PHARMA AG, priority 2021, dated 2025):
# Target: STING (Homo sapiens, UniProt Q86WV6, G230A/H232R/R293Q/R71H)
# Assay: STING reporter assay in THP1-Dual KO-IFNAR2 cells (2′3′cGAMP stimulation, luciferase reporter)
# Format: cell-based
# Details: 15 μM 2′3′cGAMP stimulation, 24 h, read-out: Pharmaron, THP1_IFNAR2 STING 24 h Luci Normalized: GeoMean EC50
# Summary of the method: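 THP1-Dual KO-IFNAR2 cells (2×10E6 cells/mL) with compounds at 0.0017-100 μM final, stimulated with 15 μM final 2′3′cGAMP delivered by Lipofectamine 2000; 24 h at 37 °C. Luciferase in supernatant read with QUANTI-Luc Plus; EC50 derived from luminescence.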
# STING, sequence (Q86WV6 whole entry R71H/G230A/H232R/R293Q): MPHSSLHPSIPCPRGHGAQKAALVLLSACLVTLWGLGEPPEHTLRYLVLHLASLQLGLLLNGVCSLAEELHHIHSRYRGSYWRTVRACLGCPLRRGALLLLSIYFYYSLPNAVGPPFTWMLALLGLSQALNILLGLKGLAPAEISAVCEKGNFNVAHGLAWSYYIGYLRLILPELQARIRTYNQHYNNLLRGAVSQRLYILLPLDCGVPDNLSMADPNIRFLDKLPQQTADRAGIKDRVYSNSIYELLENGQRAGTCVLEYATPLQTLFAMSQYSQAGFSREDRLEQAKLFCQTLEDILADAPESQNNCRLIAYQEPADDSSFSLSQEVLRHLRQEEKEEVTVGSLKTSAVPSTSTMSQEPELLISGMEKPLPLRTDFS
row,Structure (SMILES),EC50 [nM]
1,"N#CC1(C(=O)Nc2c[nH]c3ccc(O[C@H]4C[C@H](c5ccc(C(F)(F)F)cc5)C4)cc23)CC1 [Compound 565, 1-cyano-N-(5-(trans-3-(4-(trifluoromethyl)phenyl)cyclobutoxy)-1H-indol-3-yl)cyclopropane-1-carboxamide]",200 to 1000
2,"C[C@H]1C[C@H](C(=O)Nc2c[nH]c3ccc(O[C@H]4C[C@@H](c5ccc(C(F)(F)F)cc5)C4)cc23)C1 [Compound 334, trans-3-methyl-N-(5-(cis-3-(4-(trifluoromethyl)phenyl)cyclobutoxy)-1H-indol-3-yl)cyclobutane-1-carboxamide]",40 to 200
3,"CC(=O)Nc1c[nH]c2ccc(Oc3ccc(C(F)(F)F)cc3)cc12 [Compound 124, N-(5-(4-(trifluoromethyl)phenoxy)-1H-indol-3-yl)acetamide]",1000 to 5000
4,"CC(=O)Nc1c[nH]c2ccc(O[C@H]3C[C@H](c4ccc(C(F)(F)F)cc4)C3)cc12 [Compound 103, N-(5-(trans-3-(4-(trifluoromethyl)phenyl)cyclobutoxy)-1H-indol-3-yl)acetamide]",40 to 200
5,"CC1(F)CC(C(=O)Nc2c[nH]c3ccc(O[C@H]4C[C@H](c5ccc(C(F)(F)F)cc5)C4)cc23)C1 (stereo partly drawn) [Compound 469, 3-fluoro-3-methyl-N-{5-[(1R,3R)-3-[4-(trifluoromethyl)phenyl]cyclobutoxy]-1H-indol-3-yl}cyclobutane-1-carboxamide]",200 to 1000
6,"CC(=O)Nc1c[nH]c2ccc(OCC(C)(C)C3CCN(CC(F)(F)F)CC3)cc12 [Compound 108, N-(5-(2-methyl-2-(1-(2,2,2-trifluoroethyl)piperidin-4-yl)propoxy)-1H-indol-3-yl)acetamide]",5000 to 100000
7,"O=C(Nc1c[nH]c2ccc(O[C@H]3C[C@@H](c4ccc(C(F)(F)F)cc4)C3)cc12)C1CC(F)(F)C1 [Compound 587, 3,3-difluoro-N-(5-(cis-3-(4-(trifluoromethyl)phenyl)cyclobutoxy)-1H-indol-3-yl)cyclobutane-1-carboxamide]",40 to 200
8,"COCC1(C(=O)Nc2c[nH]c3ccc(OCC[C@@H]4C[C@@H]5CN(CC(F)(F)F)C[C@@H]5C4)cc23)CC1 [Compound 305, 1-(methoxymethyl)-N-(5-(2-((3aR,5r,6aS)-2-(2,2,2-trifluoroethyl)octahydrocyclopenta[c]pyrrol-5-yl)ethoxy)-1H-indol-3-yl)cyclopropane-1-carboxamide]",1000 to 5000
9,"CC(=O)Nc1c[nH]c2ccc(CCOc3ccc(C)cc3)cc12 [Compound 228, N-(5-(2-(p-tolyloxy)ethyl)-1H-indol-3-yl)acetamide]",200 to 1000
10,"O=C(Nc1c[nH]c2ccc(O[C@H]3C[C@H](c4ccc(C(F)(F)F)nc4)C3)cc12)[C@H]1C[C@@H](CO)C1 [Compound 552, cis-3-(hydroxymethyl)-N-(5-(trans-3-(6-(trifluoromethyl)pyridin-3-yl)cyclobutoxy)-1H-indol-3-yl)cyclobutane-1-carboxamide]",200 to 1000
11,"O=C(Nc1c[nH]c2ccc(CCCc3ccc(C(F)(F)F)cc3)cc12)C1CCC1 [Compound 139, N-(5-(3-(4-(trifluoromethyl)phenyl)propyl)-1H-indol-3-yl)cyclobutanecarboxamide]",40 to 200
12,"CC1(C)CC1C(=O)Nc1c[nH]c2ccc(O[C@H]3C[C@H](c4ccc(C(F)(F)F)cc4)C3)cc12 (stereo partly drawn) [Compound 563, 2,2-dimethyl-N-(5-(trans-3-(4-(trifluoromethyl)phenyl)cyclobutoxy)-1H-indol-3-yl)cyclopropane-1-carboxamide]",40 to 200
13,"CCC(=O)Nc1c[nH]c2ccc(Cc3cc(C)ccc3O)cc12 [Compound 290, N-(5-(2-hydroxy-5-methylbenzyl)-1H-indol-3-yl)propionamide]",5000 to 100000
14,"CC(=O)Nc1c[nH]c2c(C)cc(CCOc3ccc(C(F)(F)F)cc3)nc12 [Compound 259, N-(7-methyl-5-(2-(4-(trifluoromethyl)phenoxy)ethyl)-1H-pyrrolo[3,2-b]pyridin-3-yl)acetamide]",1000 to 5000
15,"CC(=O)Nc1c[nH]c2ccc(OCC(F)C3CCN(CC(F)(F)F)CC3)cc12 (stereo not shown) [Compound 105, N-(5-(2-fluoro-2-(1-(2,2,2-trifluoroethyl)piperidin-4-yl)ethoxy)-1H-indol-3-yl)acetamide]",1000 to 5000
16,"O=C(Nc1c[nH]c2ccc(O[C@H]3C[C@@H](c4ccc(C(F)(F)F)cc4)C3)cc12)C1(C(F)(F)F)CC1 [Compound 353, 1-(trifluoromethyl)-N-(5-(cis-3-(4-(trifluoromethyl)phenyl)cyclobutoxy)-1H-indol-3-yl)cyclopropane-1-carboxamide]",200 to 1000
17,"CC1(C(=O)Nc2c[nH]c3ccc(O[C@H]4C[C@H](c5ccc(C(F)(F)F)cc5)C4)cc23)CCNCC1 [Compound 460, 4-methyl-N-{5-[(1R,3R)-3-[4-(trifluoromethyl)phenyl]cyclobutoxy]-1H-indol-3-yl}piperidine-4-carboxamide]",1000 to 5000
18,"CC(=O)Nc1c[nH]c2ccc(OC(C)Cc3ccc(C(F)(F)F)cc3)cc12 (single isomer, unassigned) [Compound 285, N-(5-((1-(4-(trifluoromethyl)phenyl)propan-2-yl)oxy)-1H-indol-3-yl)acetamide]",1000 to 5000
19,"COCCN1CC(C(=O)Nc2c[nH]c3ccc(OCCc4ccc(C(F)(F)F)cc4)cc23)C1 [Compound 298, 1-(2-methoxyethyl)-N-(5-(4-(trifluoromethyl)phenethoxy)-1H-indol-3-yl)azetidine-3-carboxamide]",200 to 1000
20,"CC(=O)Nc1c[nH]c2ncc(OCCc3ccc(C(F)(F)F)cc3)cc12 [Compound 267, N-(5-(4-(trifluoromethyl)phenethoxy)-1H-pyrrolo[2,3-b]pyridin-3-yl)acetamide]",1000 to 5000
21,"CC(=O)Nc1c[nH]c2ccc(OCCC3CCN(c4ccc(C(F)(F)F)cn4)CC3)cc12 [Compound 257, N-(5-(2-(1-(5-(trifluoromethyl)pyridin-2-yl)piperidin-4-yl)ethoxy)-1H-indol-3-yl)acetamide]",200 to 1000
22,"COC1CC(C(=O)Nc2c[nH]c3ccc(O[C@H]4C[C@H](c5ccc(C(F)(F)F)cc5)C4)cc23)C1 (stereo partly drawn) [Compound 572, 3-methoxy-N-(5-(trans-3-(4-(trifluoromethyl)phenyl)cyclobutoxy)-1H-indol-3-yl)cyclobutane-1-carboxamide]",40 to 200

# Now from value to compound:
row,EC50 [nM],Structure (SMILES)
1,200 to 1000,"C[C@]1(C(=O)Nc2c[nH]c3ccc(OCC[C@@H]4C[C@@H]5CN(CC(F)(F)F)C[C@@H]5C4)cc23)C[C@H](CO)C1 [Compound 512, (1r,3R)-3-(hydroxymethyl)-1-methyl-N-(5-(2-((3aR,5r,6aS)-2-(2,2,2-trifluoroethyl)octahydrocyclopenta[c]pyrrol-5-yl)ethoxy)-1H-indol-3-yl)cyclobutane-1-carboxamide]"
2,1000 to 5000,"CC1(C(=O)Nc2c[nH]c3ccc(CC(O)Cc4ccc(C(F)(F)F)cn4)cc23)CC1 (stereo not shown) [Compound 540, N-(5-(2-hydroxy-3-(5-(trifluoromethyl)pyridin-2-yl)propyl)-1H-indol-3-yl)-1-methylcyclopropane-1-carboxamide]"
3,200 to 1000,"C[C@H]1C[C@@H](C(=O)Nc2c[nH]c3ccc(CCOc4ccc(C(F)(F)F)cc4)cc23)C1 [Compound 393, cis-3-methyl-N-(5-(2-(4-(trifluoromethyl)phenoxy)ethyl)-1H-indol-3-yl)cyclobutane-1-carboxamide]"
4,1000 to 5000,"CC1(C(=O)Nc2c[nH]c3ccc(OC[C@@H]4C[C@H]5CC[C@@H](C4)N5CC(F)(F)F)cc23)COC1 [Compound 485, 3-methyl-N-(5-(((1R,3s,5S)-8-(2,2,2-trifluoroethyl)-8-azabicyclo[3.2.1]octan-3-yl)methoxy)-1H-indol-3-yl)oxetane-3-carboxamide]"
5,5000 to 100000,"CC(=O)Nc1c[nH]c2ccc(CCOc3cncc(C(F)F)c3)cc12 [Compound 439, N-[5-(2-{[5-(difluoromethyl)pyridin-3-yl]oxy}ethyl)-1H-indol-3-yl]acetamide]"
6,200 to 1000,"O=C(Nc1c[nH]c2ccc(OCc3ccc(C(F)(F)F)cc3)cc12)C1CC(F)(F)C1 [Compound 584, 3,3-difluoro-N-(5-((4-(trifluoromethyl)benzyl)oxy)-1H-indol-3-yl)cyclobutane-1-carboxamide]"
7,40 to 200,"O=C(Nc1c[nH]c2ccc(OCCc3ccc(C(F)(F)F)cc3)cc12)C1CC(CO)C1 (stereo not shown) [Compound 312, 3-(hydroxymethyl)-N-(5-(4-(trifluoromethyl)phenethoxy)-1H-indol-3-yl)cyclobutane-1-carboxamide]"
8,200 to 1000,"O=C(Nc1c[nH]c2ccc(CCOc3ccc(C(F)(F)F)cc3)cc12)C1(C(F)(F)F)CC1 [Compound 387, 1-(trifluoromethyl)-N-(5-(2-(4-(trifluoromethyl)phenoxy)ethyl)-1H-indol-3-yl)cyclopropane-1-carboxamide]"
9,1000 to 5000,"CC(=O)Nc1c[nH]c2ccc(CCOc3ccc(C(F)(F)F)cc3C#N)cc12 [Compound 440, N-(5-{2-[2-cyano-4-(trifluoromethyl)phenoxy]ethyl}-1H-indol-3-yl)acetamide]"
10,200 to 1000,"CC1(C(=O)Nc2c[nH]c3ccc(CCOc4ccc(C(F)(F)F)cc4)cc23)CCOCC1 [Compound 594, 4-methyl-N-(5-(2-(4-(trifluoromethyl)phenoxy)ethyl)-1H-indol-3-yl)tetrahydro-2H-pyran-4-carboxamide]"
11,40 to 200,"O=C(Nc1c[nH]c2ccc(OCCc3ccc(C(F)(F)F)cc3)cc12)[C@H]1C[C@@H](CO)C1 [Compound 533, cis-3-(hydroxymethyl)-N-(5-(4-(trifluoromethyl)phenethoxy)-1H-indol-3-yl)cyclobutane-1-carboxamide]"
12,5000 to 100000,"CC(=O)Nc1c[nH]c2ccc(CC(N)Cc3ccc(C(F)(F)F)cc3)cc12 (stereo not shown) [Compound 517, N-(5-(2-amino-3-(4-(trifluoromethyl)phenyl)propyl)-1H-indol-3-yl)acetamide]"
